pIC50: −log10 of the molar value. Where two headings read alike, the source gives them in different places.
Key:
IL-6 = assay: Serum IL-6 level of IBD animal model (ELISA); assay type: in vivo, SD rats; details: 80 mg/kg, three days after making the TNBS model
Description: (§1) Inflammatory bowel disease is an autoimmune disease. […] The therapeutic effect of the representative compound for the immune system disease or inflammation can be assessed by detecting change in levels of some important cytokines such as TNF-α and IL-6 at downstream of the signal path.

TNF-α = assay: Serum TNF-α level of IBD animal model (ELISA); assay type: in vivo, SD rats; details: 80 mg/kg, three days after making the TNBS model
Description: as §1

U2932 = assay: Inhibitory activity for high metastasis type lymphoma cell line (MTT or CCK-8); assay type: cell-based; details: Homo sapiens
Protocol: (§2) Jeko-1, Raji and U2932 are three typical high metastasis type lymphoma cell lines. The lymphoma cell line was inoculated on 96-well cell culture plate in an amount of 6000 cells per well and cultured at 37° C. for 24 hours, and then treated solely with the compound added therein and cultured. Seventy-two hours later, MTT or CCK-8 method was used to detect the inhibitory activity of the compound for the two high metastasis type lymphoma cell lines.

Raji = assay: as above; assay type: cell-based; details: Homo sapiens
Protocol: as §2

Jeko-1 = assay: as above; assay type: cell-based; details: Homo sapiens
Protocol: as §2

SW620 = assay: Inhibitory activity for high metastasis type colon cancer cell line (MTT or CCK-8); assay type: cell-based; details: Homo sapiens
Protocol: as §2, with “SW620” for “Jeko-1, Raji”, “HCT116” for “U2932”, “two” for “three”, “colon cancer” for “lymphoma”

HCT116 = assay: as above; assay type: cell-based; details: Homo sapiens
Protocol: as §2, with “SW620” for “Jeko-1, Raji”, “HCT116” for “U2932”, “two” for “three”, “colon cancer” for “lymphoma”

IBD animal model = assay: Macroscopic pathological changes of IBD animal model (enteroclysis with TNBS); assay type: in vivo, SD rats; details: 80 mg/kg intragastrically daily, TNBS rats, score 0-5, 10 animals
Protocol: Eight-week-old male SD rats (10 rats per group) were fasted for 24 hours and anaesthetized with diethyl ether. 50% ethanol and TNBS (2,4,6-trinitrobenzenesulfonic acid) were mixed to prepare a solution. In the IBD model group, a tube made of vinyl resin was inserted 5 cm from anus, and enteroclysis was performed with the TNBS solution in a dose of 100 mg/kg. The rats were hung upside down 30 seconds later after the enteroclysis to ensure no leakage of the TNBS solution. In the control group, the TNBS solution was replaced with normal saline with which enteroclysis was performed. Seven days later after the enteroclysis with the TNBS solution or normal saline, animals were sacrificed and dissected. […] Two weeks later after treated with the drugs, the animals were sacrificed and dissected, and large intestine thereof was taken out and fixed in 4% formalin solution for 30 minutes. The large intestine of the animals was cut lengthwise from the mesentery side to take photos for rectum portion and measure the weight of rectum. Based on the macroscopic observation and judgment score (Table 2-1), ulceration and bleeding states of rectum portion were scored according to the macroscopic observation scoring standard.

HMLE-Snail cell line = assay: Formation of HMLE-Snail cell line spheroids; assay type: cell-based; details: read-out: Colony (%): cell colony number of drug-treated group/cell colony number of control group × 100%
Protocol: HMLE-Snail cell line is one of most classic cell models for studying tumor cell metastasis and EMT path. HMLE-Snail cell line highly expresses Snail protein, and thus one of most remarkable features thereof is that it has spherical cellular morphology (spheroid). […] The HMLE-Snail cell line used in the present invention was donated by Dr. Robert Weinberg from America Massachusetts Whitehead Institute. HMLE-Snail cells were suspended in a liquid culture medium (in which B-27 and N-2 were added, purchased from America Invitrogen Corporation) containing DMEM/F12 in a ratio of 1:1, in an amount of 1.0×10^3 cells/ml, and cultured in an ultra low attachment culture plate so as to allow spheroids to be formed. Seven days later, spheroids were collected by centrifugation, and counted. […] Docetaxel is a common clinical chemotherapy drug.

XPO1 protein = biological target: T1, XPO1 protein (Homo sapiens, UniProt O14980); assay: Inhibitory activity for XPO1 protein (NES-GFP nuclear export, laser confocal microscope); assay type: cell-based; details: NES-GFP nuclear export, cells treated for 2 hours
T1 construct: Sixteen hours later, NES-GFP plasmid was transfected with liposome; endogenous in cells
T1 sequence (O14980 whole entry, species assumed): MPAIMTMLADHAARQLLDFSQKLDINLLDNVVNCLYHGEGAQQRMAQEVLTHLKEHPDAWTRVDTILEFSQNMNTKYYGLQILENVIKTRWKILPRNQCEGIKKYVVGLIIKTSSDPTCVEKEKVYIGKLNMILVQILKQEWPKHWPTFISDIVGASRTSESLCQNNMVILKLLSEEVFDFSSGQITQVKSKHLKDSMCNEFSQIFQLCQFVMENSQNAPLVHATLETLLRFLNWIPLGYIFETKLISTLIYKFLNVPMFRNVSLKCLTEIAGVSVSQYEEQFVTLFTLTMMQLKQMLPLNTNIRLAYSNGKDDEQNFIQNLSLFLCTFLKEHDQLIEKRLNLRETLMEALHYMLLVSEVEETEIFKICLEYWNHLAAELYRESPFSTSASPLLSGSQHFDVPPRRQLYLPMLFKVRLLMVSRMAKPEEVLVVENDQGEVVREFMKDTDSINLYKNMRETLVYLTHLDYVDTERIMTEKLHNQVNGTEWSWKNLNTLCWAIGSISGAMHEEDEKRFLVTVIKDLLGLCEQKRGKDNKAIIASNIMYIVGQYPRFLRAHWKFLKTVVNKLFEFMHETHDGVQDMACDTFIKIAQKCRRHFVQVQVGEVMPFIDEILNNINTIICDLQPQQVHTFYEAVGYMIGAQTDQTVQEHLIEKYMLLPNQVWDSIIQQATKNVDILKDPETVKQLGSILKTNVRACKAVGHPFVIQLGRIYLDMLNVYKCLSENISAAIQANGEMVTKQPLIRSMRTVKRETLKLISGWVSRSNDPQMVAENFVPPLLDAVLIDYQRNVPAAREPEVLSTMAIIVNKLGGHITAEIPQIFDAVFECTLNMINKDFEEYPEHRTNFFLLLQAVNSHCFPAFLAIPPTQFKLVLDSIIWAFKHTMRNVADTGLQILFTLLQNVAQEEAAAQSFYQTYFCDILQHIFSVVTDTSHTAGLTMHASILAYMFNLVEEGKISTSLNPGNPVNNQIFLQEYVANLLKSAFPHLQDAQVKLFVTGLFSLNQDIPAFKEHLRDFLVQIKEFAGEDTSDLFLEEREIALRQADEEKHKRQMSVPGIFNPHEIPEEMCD
Description: NES (nuclear export signal) is a nuclear export signal peptide recognized by XPO1 protein. XPO1 recognizes NES sequence peptide segment of biomacromolecule and exports the biomacromolecule out of nucleus. NES-GFP protein is obtained by co-expressing green fluorescence protein GFP and NES sequence peptide segment by using a eukaryotic expression plasmid. Inhibitory activity of the representative compound for XPO1 protein can be assessed by detecting influence of the compound on NES-GFP cell localization.
The cells were digested with trypsin, counted, and inoculated on 96-well plate in an amount of 1.5×10^4 cells per well. Sixteen hours later, NES-GFP plasmid was transfected with liposome.

NCI-H1650 = assay: cells; assay type: cell-based; details: Homo sapiens
Protocol: (§3) NCI-H1975 and NCI-H1650 are two typical high metastasis type lung cancer cell lines. The therapeutic effect of the representative compound for the metastasis type lung cancers can be preliminarily assessed by detecting the inhibitory activity of the representative compound for the two cell lines. The lung cancer cell line was inoculated on 96-well cell culture plate in an amount of 6000 cells per well and cultured at 37° C. for 24 hours, and then treated solely with the compound added therein and cultured. Seventy-two hours later, MTT or CCK-8 method was used to detect the inhibitory activity of the compound for the two lung cancer cell lines.

NCI-H1975 = assay: cells; assay type: cell-based; details: Homo sapiens
Protocol: as §3

[1] = test system: SK-OV3 (high metastasis type ovarian cancer cell line); assay: Ovarian cancer intraperitoneal metastasis animal model; assay type: in vivo, nudemice (BALB/c-nu/nu); details: Mus musculus, SK-OV-3, ip; for response vs control in vivo at 80 mg/kg: 504 h, read-out: T/C (%); for mortality at 80 mg/kg: 720 h, six mice per group, read-out: Mortality (within 30 days) (converted)
Protocol: The ovarian cancer intraperitoneal metastasis animal model is one of most classic animal models for studying anti-ovarian cancer metastasis drug. Sixty 5 to 6-week-old female nudemice with similar weight (BALB/c-nu/nu) were chosen. SK-OV3 (high metastasis type ovarian cancer cell line) stably expressing green fluorescence protein was screened, and prepared into a cell suspension of 2×10^6 cells/100 μl with serum-free PRMI1640 medium. […] Three weeks later, the cancer was detected with a small animal in vivo imaging apparatus (Xenogen, School of Medicine, Shanghai Jiaotong University) and photos thereof were taken. […] In the table, T represents the drug-treated group, and C represents the blank control group. T/C is (V/V0 of compound-treated group)/(V/V0 of blank control group) in which V represents the cancer volume of mouse on the day the detection was performed, and V0 represents the cancer volume of mouse on the day the administration begun.

HO-8910 = assay: Inhibitory activity for high metastasis type ovarian cancer cell line (MTT or CCK-8); assay type: cell-based; details: HO-8910, 72 hours; read-out: IC50
Protocol: (§4) The two cell lines were inoculated on 96-well cell culture plate in an amount of 6000 cells per well and cultured at 37° C. for 24 hours, and then treated solely with the representative compound added therein and cultured. Seventy-two hours later, MTT or CCK-8 method was used to detect the inhibitory activity of the representative compound for the high metastasis type ovarian cancer cell lines.

A2780 = assay: as above; assay type: cell-based; details: Homo sapiens; A2780, 72 hours; read-out: IC50
Protocol: as §4

[2] = U2932, 72 hours, read-out: IC50
[3] = Jeko-1, 72 hours, read-out: IC50
[4] = SW-620, SW620, 72 hours, read-out: IC50
[5] = HCT-116, HCT116, 72 hours, read-out: IC50
[6] = 10 μg/ml, treated for 24 hours, control = 100
[7] = NCI-H1650, 72 hours, read-out: IC50
[8] = NCI-H1975, 72 hours, read-out: IC50
[9] = 80 mg/kg intraperitoneal injection once a day for 3 weeks

Row | SMILES | Serum IL-6 level, Animal-1 (IL-6) [ng/mL] | Serum IL-6 level, Animal-2 (IL-6) [ng/mL] | Serum IL-6 level, Animal-3 (IL-6) [ng/mL] | Serum TNF-α level, Animal-1 (TNF-α) [ng/mL] | Serum TNF-α level, Animal-2 (TNF-α) [ng/mL] | Serum TNF-α level, Animal-3 (TNF-α) [ng/mL] | pIC50 (U2932; [2]) | pIC50 (Raji; 72 hours, read-out: IC50) | pIC50 (Jeko-1; [3]) | pIC50 (SW620; [4]) | pIC50 (HCT116; [5]) | Macroscopic pathological score (IBD animal model) | activity at 10 µg/mL (HMLE-Snail cell line; [6]) [%] | Activity (μM): inhibitory activity for XPO1 protein (full inhibitory concentration) (XPO1 protein) [µM] | pIC50 (NCI-H1650; [7]) | pIC50 (NCI-H1975; [8]) | response vs control in vivo at 80 mg/kg [1, 9] [%] | mortality at 80 mg/kg [1] [%] | further results
1 | COc1cc([S+]([O-])/C=C/CCN=C=S)cc(OC)c1OC (stereo not shown) [Compound I-06] | 0.7 | 0.5 | 0.3 | 0.9 | 0.6 | 0.5 | 6.77 | 7.00 | 7.15 | 6.82 | 7.00 | 1.0 ± 0.1 | 10 to 15 | 0.200 |  |  |  |  | 
2 | CCC[S+]([O-])/C=C/CCN=C=S (stereo not shown) [Compound F-01, reference compound] | 1.8 | 1.9 | 2.0 | 2.0 | 1.7 | 1.9 | 5.28 | 5.43 | 5.46 | 5.39 | 5.46 |  | 60 to 65 | 10 to 15 | 5.27 | 5.16 | 37 | 0 | 
3 | [O-][S+](/C=C/CCN=C=S)c1nnnn1-c1ccccc1 (stereo not shown) [Compound I-25] | 0.6 | 0.7 | 0.5 | 1.0 | 0.5 | 0.8 | 6.60 | 6.74 | 6.82 |  |  | 1.5 ± 0.3 | 10 to 15 |  | 6.66 | 6.60 |  |  | pIC50 (HO-8910): 6.52; pIC50 (A2780): 6.15
4 | CS/C=C/CCN=C=S [Compound F-06, reference compound] | 2.8 | 2.5 | 2.3 | 2.3 | 2.0 | 2.2 | 4.83 | 4.87 | 4.92 | 4.75 | 4.81 | 3.5 ± 0.2 | 70 to 75 | 15 to 20 | 4.79 | 4.76 | 80 | 16.7 | 
5 | [O-][S+](/C=C/CCN=C=S)c1cc(C(F)(F)F)cc(C(F)(F)F)c1 (stereo not shown) [Compound I-04] |  |  |  |  |  |  |  |  |  |  |  | 1.0 ± 0.5 |  | 0.250 |  |  |  | 0 | pIC50 (U2932; U2932, 72 h): 7.05; pIC50 (Raji; 72 h): 7.22; pIC50 (Jeko-1; JeKo-1, 72 h): 7.30; pIC50 (SW620; SW-620, 72 h): 7.05; pIC50 (HCT116; HCT-116, 72 h): 7.15; pIC50 (NCI-H1650; NCI-H1650, 72 h): 7.10; pIC50 (NCI-H1975; NCI-H1975, 72 h): 7.05; activity at 10 µg/mL (HMLE-Snail cell line; 24 h): 10 to 15%; response vs control in vivo at 80 mg/kg [1]: 19%
6 | [O-][S+](/C=C/CCN=C=S)c1ccc(Oc2ccccc2)cc1 (stereo not shown) [Compound I-27] |  |  |  |  |  |  |  |  |  |  |  |  | 25 to 30 | 0.5 to 1 |  |  | 25 | 0 | pIC50 (HO-8910): 6.10; pIC50 (A2780): 5.92
7 | [O-][S+](/C=C/CCN=C=S)C1CC1 (stereo not shown) [Compound F-03, reference compound] | 1.7 | 1.8 | 1.8 | 1.7 | 1.6 | 1.5 | 5.31 | 5.49 | 5.51 | 5.48 | 5.54 | 2.5 ± 0.6 | 55 to 60 | 5 to 10 | 5.31 | 5.24 | 35 | 0 | 

Source: patent US10315990B2, “Isothiocyanate compounds and isothiocyanate XPO1 protein inhibitor drugs thereof” (DRIVINGFORCE THERAPEUTICS Co., Ltd., priority 2015, dated 2019)
